From US10105437B2, “Epitopes related to coeliac disease” (BTG International Limited, priority 2004, dated 2018)

Legend:
Type in all cases: cell-based, human
[1] = tested on: PBMC from subjects with DQ2+ coeliac disease; experiment: Interferon gamma ELISPOT, high grade avenin peptides after oats challenge; conditions: for subjects in whom peptide was dominant (>70% maximal response) after oats challenge: day 6 PBMC
Description: IFNγ ELISpot assays (Mabtech, Sweden) were performed in 96-well plates (MAIP S-45, Millipore) in which each well contained 25 mcl of peptide solution and 100 mcl of PBMC (2-8×10^5/well) in RPMI containing 10% heat inactivated human AB serum. After development and drying, IFNγ ELISpot plates were assessed using the MAIP automated ELISpot plate counter. Data was then analysed according to a novel algorithm (Expectation Maximization: EM) to define and quantify interferon-gamma responses to 9mer sequences contained within the peptide library (see FIG. 3 and below). 9mer peptides were then rationalised according to an algorithm that assumes redundancy in T-cell recognition, the “IterativeCluster” algorithm (see FIG. 4 and below), by allowing groups of amino acids with similar chemical properties at any one position in the 9mer, or for glutamate to replace glutamine at any position (assuming deamidation may have occurred).
High grade avenin peptides were assessed 3 days after completing oats challenge with pure wheat-free oats, 100 g/d for 3 days (“day 6” PBMC interferon gamma ELISPOT responses). These peptides were designed upon peptides previously defined using the screening grade (“first round”) avenin peptide library and on potential deamidation sites. There were 25 peptides (as 16mers) with purity verified by HPLC as >80%, and sequences confirmed by mass spectroscopy.
Interferon gamma ELISPOT responses to the high grade avenin peptides following deamidation by tTG were compared in 18 subjects with DQ2+ coeliac disease.

[2] = tested on: PBMC from HLA DQ8+DQ2- CD subjects; experiment: Interferon gamma ELISPOT, glutenin 20mer library in HLA DQ8 subjects; conditions: tTG-pretreated glutenin 20mers sharing the motif or sequence
From the text: PBMC from two subjects initially challenged were used to screen the first round “Melbourne” wheat gliadin 20mer library. The 20mer sequences identified using PBMC from these two HLA DQ8 CD subjects were dissected further by screening, in five HLA DQ8+DQ2− CD subjects including the two original subjects, a second round library based on reactive 20mers in the 1st round library. The 2nd round library consisted of screening grade overlapping 16mers, and 13mers predicted to correspond to tTG-mediated deamidation products of epitopes with the potential for deamidation of glutamine at position 1 and/or position 9 (consistent with the HLA DQ8 peptide binding motif). In addition, the 1400 glutenin (HMW and LMW) tTG-pretreated 20mers in the “Melbourne” wheat gluten library were also screened in these five subjects.
Dominant 20mer peptides shared the motifs or had the sequences: PQQQQQQLVQQQ (SEQ ID NO: 1917), QGIFLQPH(LQ)I(AS)QLEV (SEQ ID NO: 1918), QPGQGQQG(HY)Y (SEQ ID NO: 1919), QSRYEAIRAII(FY)S (SEQ ID NO: 1920), RTTTSVPFD (SEQ ID NO: 1921), QPPFWRQQP (SEQ ID NO: 1922), Q(PS)(PS)(FI)(PS) QQQQ (SEQ ID NO: 1923), (QPLR)GYYPTSPQ (SEQ ID NO: 1924) (previously identified HLA DQ8 epitope, van der Wal 2001), QGSYYPGQASPQ (SEQ ID NO: 1925), […] (SEQ ID NO: 1926), and […] (SEQ ID NO: 1927). Glutenin peptides were assessed after pre-treatment with transglutaminase.

[3] = tested on: PBMC from HLA DQ2 coeliac disease subjects; experiment: Interferon gamma ELISPOT, combitope comparison after wheat, rye or barley challenge; conditions: for median ELISPOT response as percent of response to Combitope: after wheat challenge, n=16 subjects
From the text: The issue of epitope redundancy and the potential utility in diagnostics and therapeutics of peptides designed to combine “unique” dominant epitopes was addressed by comparing interferon gamma ELISPOT responses after wheat (n=16 HLA DQ2 coeliac disease subjects), rye (n=17) or barley (n=13) challenge to the sequences: QLQPFPQPELPYPQPQL (SEQ ID NO: 1903) (“P04724E”), QPEQPFPQPEQPFPWQP (SEQ ID NO: 1904) (“626fEE”), and […] (SEQ ID NO: 1905) (“Combitope”). After rye and barley challenge the sum of the median ELISPOT responses (spot forming units) to P04724E and 626fEE were almost identical (99%, and 102%, respectively) to the response to a similar (optimal) concentration of the Combitope. However, after wheat challenge (n=16 subjects), median P04724E response was 89% of that to Combitope, and median 626fEE responses was 70% of the response to Combitope.

[4] = tested on: PBMC from HLA-DQ2+ subjects; experiment: Interferon gamma ELISPOT, initial gliadin epitope screening library; conditions: 15 HLA-DQ2+ subjects, deamidated 20mers
From the text: In initial experiments involving 29 HLA-DQ2+ individuals with coeliac disease on long-term gluten free diet, interferon-gamma ELISPOT assays were used to screen a previous Pepset (described in WO 03/104273, which is incorporated herein by reference) initially as pools of peptides and then in 15 subjects as individual peptides with and without deamidation by tTG. This Pepset library consisted of 652 20mer gliadin peptides spanning all unique 12mers contained within all Genbank entries described as wheat gliadins found in September 2001. This Pepset library was designed “manually” from gene-derived protein sequences aligned using ClustalW software (MegAlign) arranged into phylogenetic groupings.
Approximately 0.6 micromole of each of 652 of the 20mers was provided. Two marker 20mer peptides were included in each set of 96 ([…]—peptide 161 (SEQ ID NO: 1931), and […] (SEQ ID NO: 1932)) and were characterized by reverse phase-HPLC and amino acid sequence analysis. Average purities of these marker peptides were 19% and 50%, respectively. Peptides were initially dissolved in acetonitrile (10%) and Hepes 100 mM to 10 mg/ml. The final concentration of individual peptides incubated with PBMC for the IFNγ ELISpot assays was 20 mcg/ml. These peptides were deamidated by incubation with guinea pig tissue tTG (Sigma T5398) in the ratio 100:32 mcg/ml for two hours at 37° C. […]

[5] = after oats challenge, deamidated by tTG, 18 subjects

Substance: SEQYQPYPEQQEPFVQ (Description of Artificial Sequence: Synthetic gluten peptide) [peptide 1490, avenin peptide reported in Arentz-Hansen, PLoS Medicine 2004, reference compound]
- subjects with far weaker response ([1]; after oats challenge): 5
- subjects with strong positive response ([1]; after oats challenge): one

Substance: EQQFGQNIFSGFSVQL (Description of Artificial Sequence: Synthetic gluten peptide)
- subjects in whom peptide was dominant (>70% maximal response) after oats challenge ([1]; deamidated by tTG, 18 subjects): 11/18

Substance: (QPLR)GYYPTSPQ: previously identified HLA DQ8 epitope, van der Wal 2001 [reference compound]
- dominance among five subjects [2]: dominant in at least one of the five subjects

Substance: QIPEQLRCPAIHSVVQ (Description of Artificial Sequence: Synthetic gluten peptide)
- subjects with positive responses [1, 5]: 3/18

Substance: QLQPFPQPELPYPQPQL (Description of Artificial Sequence: Synthetic gluten peptide) [Peptide P04724E]
- sum of the median ELISPOT responses to P04724E and 626fEE relative to response to Combitope ([3]; after barley challenge, n=13): 102%
- sum of the median ELISPOT responses to P04724E and 626fEE relative to response to Combitope ([3]; after rye challenge, n=17): 99%
- median ELISPOT response as percent of response to Combitope [3]: 89%

Substance: QPEQPFPQPEQPFPWQP (Description of Artificial Sequence: Synthetic gluten peptide) [Peptide 626fEE]
- sum of the median ELISPOT responses to P04724E and 626fEE relative to response to Combitope ([3]; after barley challenge, n=13): 102%
- sum of the median ELISPOT responses to P04724E and 626fEE relative to response to Combitope ([3]; after rye challenge, n=17): 99%
- median ELISPOT response as percent of response to Combitope [3]: 70%

Substance: GYYPTSSLQPEQGQQGYYPT (Description of Artificial Sequence: Synthetic gluten peptide) [glutenin 20mer, HLA DQ8]
- dominance among five subjects [2]: dominant in at least one of the five subjects

Substance: PQPFPPQLPYPQPQLPYPQP (Description of Artificial Sequence: Synthetic gliadin peptide) [Peptide 91]
- potency rank in library [4]: most potent gliadin 20mer

Substance: QPPFWRQQP (Description of Artificial Sequence: Synthetic gluten peptide) [motif of dominant glutenin 20mers, HLA DQ8]
- dominance among five subjects [2]: dominant in at least one of the five subjects

Substance: EQYQPEQQPFMQPL (Description of Artificial Sequence: Synthetic gluten peptide)
- subjects with >40% maximal peptide response [1, 5]: 5/18

Substance: QGSYYPGQASPQ (Description of Artificial Sequence: Synthetic gluten peptide) [motif of dominant glutenin 20mers, HLA DQ8]
- dominance among five subjects [2]: dominant in at least one of the five subjects

Substance: QGQQLAQGQQGQQPAQVQQG (Description of Artificial Sequence: Synthetic gluten peptide) [glutenin 20mer, HLA DQ8]
- dominance among five subjects [2]: dominant in at least one of the five subjects

Substance: QYQPYPEQEQPILQQQ (Description of Artificial Sequence: Synthetic gluten peptide)
- subjects in whom peptide was dominant (>70% maximal response) after oats challenge ([1]; deamidated by tTG, 18 subjects): 3/18

Substance: PQQQQQQLVQQQ (Description of Artificial Sequence: Synthetic gluten peptide) [motif of dominant glutenin 20mers, HLA DQ8]
- dominance among five subjects [2]: dominant in at least one of the five subjects

Substance: QLRCPAIHSVVQAIIL (Description of Artificial Sequence: Synthetic gluten peptide)
- subjects in whom peptide was dominant (>70% maximal response) after oats challenge ([1]; deamidated by tTG, 18 subjects): 4/18

Substance: RTTTSVPFD (Description of Artificial Sequence: Synthetic gluten peptide) [motif of dominant glutenin 20mers, HLA DQ8]
- dominance among five subjects [2]: dominant in at least one of the five subjects
